One series addresses T1, apoE4 (Homo sapiens, UniProt P02649, C130R).
T1 construct: made in house
The series can be described thus: Emulsion binding assay for domain interaction, apoE4. The method, then: (§1) Preparation of emulsion particles. Triolein (160 mg) and L-alpha-Phosphatidylcholine (40 mg) are combined and dried under nitrogen. After the addition of 8 mls of buffer (10 mM Tris, 100 mM KCl, 1 mM EDTA, pH 8.0), the mixture is sonicated in a water bath to obtain a heterogeneous mix of emulsion particles. The particles are harvested by ultracentrifugation (TLA 100.2 rotor, 30,000 rpm for 30 minutes) and the subsequent lipid cake is removed by tube slicing and resuspended in 100 μt 20 mM Phosphate Buffer (PB). Triolein and phospholipid content are measured and total emulsion particle concentration is determined.
(§2) Radiolabelling Freshly denatured and renatured Apolipoprotein E3 and E4 are radiolabelled using Bolton-Hunter Reagent [^125I] (ICN). Specific Activity is determined using Lowry method and Gamma 8000 counter.
(§3) Binding Affinity Assay. […] In glass tubes, 25 μg of protein (with iodinated tracer) was reduced with 1% β-mercaptoethanol. Two hundred and fifty μg of emulsion particles and 2.5 μl of compound (10 mM stock) were added and the final mixture was brought up to 250 μl with 20 mM phosphate buffer (PB). The reaction mixture was then incubated in a 37° C. water bath for 2 hours before being transferred to 1.5 ml ultracentrifuge tubes. Finally, 50 μl of 60% sucrose was mixed with the sample and 400 μl 20 mM PB was carefully layered on top. Using a TLA 100.2 rotor, the tube was spun at 30,000 rpm for 30 minutes and subsequently cut to separate the floating emulsion particle layer from the free protein at the bottom of the tube. These fractions were then combined with the respective half of the actual tube and counted using a Gamma-8000. […] Protein-only assays yielded 94.5-96.6% of protein accumulated in the bottom portion of the tube. In emulsion particle-only assays, 94% of emulsion particles accumulated in the top portion of the tube.
(§4) Preparation of Emulsion Particles and VLDL Binding Affinity Assay. VLDL-like emulsion particles were prepared using triolein (160 mg) and L-alpha-phosphatidylcholine (40 mg), as described. Dong and Weisgraber (1996) supra; and Dong et al. (1994) J. Biol. Chem. 269:22358-22365.

In series [1] the target is T2, apoE3 (Homo sapiens, UniProt P02649).
T2 construct: made in house
The series can be described thus: Emulsion binding assay, apoE3. The note with it: follow-up assay. The method, then: as §1, §2, §3, §4

For series [2], the system named is apoE3. Nature of the series: Aβ production assay, B103-APP cells incubated with apoE3. The class given is cell-based, rat. The note with it: FIG. 22. The method, then: (§5) Aβ production assay. Stable neuroblastoma B103 cell lines transfected with a wildtype hAPP cDNA construct (B 103-APP) were selected by growing them in Dulbecco's modified Eagle's medium (DMEM) containing 10% fetal calf serum (FBS) and 400 μg/ml G418. A cell line expressing APP at similar levels in mouse brains has been identified by RNase protection assay (RPA) and was used in the studies described below. To determine Aβ production, B103-APP cells were incubated with serum-free minimal essential medium (MEM) containing N2 supplements with or without apoE isoforms for 24 h at 37° C. After incubation, 50 μl of medium was collected and assayed for Aβ levels with an ELISA method. The cells were lysed, and cellular proteins were determined by the Lowry method. AP production was normalized to cellular protein.
(§6) Cell Culture. Rat neuroblastoma B103 cells stably expressing human wildtype APP (hAPP695wt) (Xu et al. ((1999) Proc. Natl. Acad. Sci. USA 96:7547-7552; Esposito, et al. (2004) J. Neurochem. 91:1260-1274) were generated in Dr. Lennart Mucke's laboratory at the Gladstone Institute of Neurological Disease and maintained in Dulbecco's modified Eagle's medium (DMEM) (GIBCO, Grand Island, N.Y.) containing 400 μg/ml G418, 10% fetal bovine serum, and 5% horse serum at 37° C. Twenty-four hours after plating into 48-well plates (1×10^5 cells per well), cells were washed twice with serum-free DMEM and cultured for another 24 h in DMEM containing 1% N-2 supplement (GIBCO) to induce differentiation. The cells were treated with either β-VLDL (25 μg/ml cholesterol), recombinant human apoE isoform-enriched β-VLDL (7.5 μg/ml apoE and 25 μg/ml cholesterol), or recombinant human apoE (7.5 μg/ml apoE) in fresh DMEM containing 1% N-2 supplement for an additional 24 h. In some experiments, RAP (25 nM or 1 μM) was added to the cells 1 h before apoE treatment.
(§7) Aβ Assay. Aβ secreted into the medium was detected with a sandwich enzyme-linked immunosorbent assay (ELISA), using mAb 266 as a capturing antibody and 3D6 as a detecting antibody, as described. Johnson-Wood et al. ((1997) Proc. Natl. Acad. Sci. USA 94:1550-1555). Aβ was quantified from a standard curve (Aβ42; Bachem, Torrance, Calif.) and normalized by total cellular protein.

Another series concerns YFP-apoE4-CFP cells. The series can be described thus: MTT cytotoxicity assay. The class given is cell-based, mouse. The note with it: 5-10 μM. From the text:
Since the emission spectrum of CFP (460-520 nm) overlaps with the excitation spectrum of YFP (480-520 nm), FLEXstation (Molecular Devices) can be used to measure FRET in living cells expressing YFP-apoE3-CFP or YFP-apoE4-CFP in a high throughput manner. […] Thus, the ratio of FRET to CFP emission in cells expressing YFP-apoE4-CFP is much higher than that in those expressing YFP-apoE3-CFP (FIG. 31). […] Since the FLEXstation can read FRET in both cells and the culture media treated without or with various small molecules, this assay allows one to know whether a small molecule affects apoE4 domain interaction only in the medium (“medium FRET”) or also inside the cell (“intracellular FRET”). In addition, after measurement of the intracellular FRET, the cells can be incubated further with MTT to determine the cytotoxicity of the compound. Thus, the cell-based FRET assay can simultaneously provide three sets of data-intracellular FRET, medium FRET, and cytotoxicity.

Series [3] deals with Neuro-2a cells. The series can be described thus: Aβ-induced lysosomal leakage (cytosolic β-hexosaminidase). Format: cell-based, mouse. The method, then:
The cytosolic fraction was obtained by ultracentrifugation, and the cytosolic β-hexosaminidase activity was measured.
Quantitation of the lysosomal enzyme β-hexosaminidase activity in the cytosol indicates lysosomal leakage. […] After incubation the cells were washed and cytosolic fractions were isolated as described in Materials and Methods. The enzymatic activity of β-hexosaminidase was assayed in 20 μg of cytosolic protein for each sample.
Lysosomal leakage was quantitated by assaying cytosolic 0-hexosaminidase activity. […] Conditioned media were prepared as described above. Apoptosis was quantitated by measuring DNA fragmentation.

In series [4] the test system is Neuro-2a cells. The series can be described thus: Aβ-induced apoptosis (DNA fragmentation assay). Format: cell-based, mouse. The method, then:
DNA Fragmentation Assay—DNA fragmentation of apoptotic cells was determined with Cell Death Detection ELISA kits (Roche, Indianapolis, Ind.).
FIG. 38. […] Control cells were not treated with Aβ1-42. Apoptotic cell death was measured with a DNA fragmentation assay. Values are the mean±S.D. of three separate experiments.
FIGS. 39A and 39B. […] Lysosomal leakage was quantitated by assaying cytosolic 0-hexosaminidase activity. […] Conditioned media were prepared as described above. Apoptosis was quantitated by measuring DNA fragmentation.

A further series deals with B103 cells. The series can be described thus: Toxicity to B103 cells. The note with it: at the micromole level. Format: cell-based, rat.
A further series can be described thus: Water solubility. The class given is physicochemical.
Series [5] concerns apoE4-expressing Neuro-2a cells. Nature of the series: Neurite outgrowth, apoE4-expressing Neuro-2a cells. Format: cell-based, mouse. The note with it: in the presence of β-VLDL. The method, then:
Cells were grown in DME/F12 containing 10% FBS and G418 (400 μg/ml). On the day the experiment was initiated, the cells were subcultured into 35 mm plates in DME/F12 with 10% FBS. The cells were allowed to adhere to the plastic plates for 2 hr at 37° C., and then the culture medium was changed to N2 medium with or without increasing concentrations of lipoproteins. After 48 hr at 37° C., the media were replaced with the same medium (with or without lipoproteins), and the incubation was continued for an additional 48 hr. […] Neurons were imaged in fluorescence mode with a confocal laser scanning system (MRC-600, BioRad, Hercules, Calif.), and the images were digitized with an Image-1/AT image analysis system (Universal Images, West Chester, Pa.). The neuronal images were coded before characterization, and the following variables were measured: 1) number of neurites (defined as cell surface projections at least one-half the cell diameter) on each neuron; 2) neurite branching (the number of branch points on each neurite); and 3) neurite extension (the length of the longest neurite, measured from the cell body). Typically, in each experiment the neurites of 20 to 40 neurons per plate were measured and the results preserved as the mean±S.E.M. […]

Series [6] has as its system apoE4 enhancement of Aβ production. Nature of the series: Aβ production assay, B103-APP cells incubated with apoE4. Conditions: RAP 25 nM, preincubated 1 h. The class given is cell-based, rat. As to the method: as §5, §6, §7
Series [7] relates to Neuro-2a cells. The series can be described thus: Binding of DiI-labeled LDL to Neuro-2a cells. Format: cell-based, mouse. Conditions: 5 μg/ml of RAP.
Setting [8] is: follow-up assay, second E4 control.
The mark [9] stands for this setting: initial assay, 2.5 μl of compound (10 mM stock) in 250 μl, 37° C. 2 hours, listed as 3-butyl-1-ethyl-5-(2-(3-sulfobutyl-benzo(1,3)oxazo, potassium salt)).

Several values for one entry are separate records, joined by “and”; a condition that tells them apart may be missing. Equal entries are not always repeated.

T1 sequence (P02649 19-317 C130R): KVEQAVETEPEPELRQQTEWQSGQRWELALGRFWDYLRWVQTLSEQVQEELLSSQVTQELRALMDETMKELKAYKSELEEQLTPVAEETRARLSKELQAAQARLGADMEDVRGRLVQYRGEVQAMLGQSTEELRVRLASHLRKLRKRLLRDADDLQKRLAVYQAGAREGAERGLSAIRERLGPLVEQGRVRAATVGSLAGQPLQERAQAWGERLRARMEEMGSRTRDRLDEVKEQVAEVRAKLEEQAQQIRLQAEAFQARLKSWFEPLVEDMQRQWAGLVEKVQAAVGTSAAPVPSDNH
T2 sequence (P02649 19-317): as the sequence (P02649 19-317 C130R) above, with R112C counted along it

Take `CCCCN1C(=O)/C(=C/C=C2/Oc3ccccc3N2CCCCS(=O)(=O)[O-])N(CC)C1=S.[K+]` [GIND-105]: on apoE4 (follow-up assay), the “E4 + cpd n = 3, % bound” value is 57% and the “E4 + cpd n = 3, % free” value came out at 43%. At apoE4 (setting [8]), the “E4 control, % bound” value came out at 45% and the “E4 control, % free” value is 55%. For the same compound, at apoE4 (setting [9]), the “E4 + cpd, % bound” value is 28% and 21%; the “E4 + cpd, % free” value is 72% and 79%. For the same compound, on apoE3 [1], the “E3 + compound, % bound” value is given as 30% and the “E3 + compound, % free” value was found to be 70%. In the series with apoE3 [2], the “effect on apoE3 (Aβ production)” value was “no effect”. Also, in the series with YFP-apoE4-CFP cells, the “cytotoxicity (MTT assay)” value is on record as “did not cause significant cytotoxicity”. Also, the “lysosomal leakage, cells with medium alone or medium containing apoE3 plus Aβ1-42” value in the series on Neuro-2a cells [3] is “no significant effect”. Besides, in the series on Neuro-2a cells [4], the “apoptosis, cells with medium alone or medium containing apoE3 plus Aβ1-42” value is reported as “no significant effect”. The “toxicity to B103 cells” value in the series with B103 cells is “no significant toxicity”. In addition, the water solubility entry in “Water solubility” is recorded as “water-soluble”.
As for “RAP: receptor-associated protein, 39-kD glycoprotein, LRP antagonist”, in series [5], the “inhibition of neurite extension seen in the apoE4-expressing cells” value is given as “blocked the inhibition of neurite extension”. Besides, the “apoE4 enhancement of Aβ production” value in [6] is “abolished the apoE4-induced enhancement of Aβ production”. In the series with Neuro-2a cells [7], the “binding of DiI-labeled LDL to the Neuro-2a cells” value is “did not block”.

The values are drawn from patent publication US7964598B2 (The J. David Gladstone Institutes, priority 1995, dated 2011).
